These results are taken from ChEMBL document CHEMBL1131916, “Novel series of O-substituted 8-quinolines and 4-benzothiazoles as potent antagonists of the bradykinin B2 receptors” (Bioorg Med Chem Lett, 1999).

As a reminder, the IC50 is the concentration that gives 50% inhibition. High values mean weaker potency, low ones greater potency. The Ki is the dissociation constant of the complex between target and ligand, obtained from inhibition or displacement. The EC50 is the concentration giving half of the maximal effect. A higher EC50 goes with a less potent agent. Broadly, the inhibition is the relative decrease from the control value, in per cent. Read a low inhibition as little suppression. For orientation: Inhibition means the drop in the measured response relative to a control, in per cent.

Assay [1] addresses T1, B2 bradykinin receptor (Cavia porcellus, UniProt O70526).
T1 sequence (O70526 whole entry): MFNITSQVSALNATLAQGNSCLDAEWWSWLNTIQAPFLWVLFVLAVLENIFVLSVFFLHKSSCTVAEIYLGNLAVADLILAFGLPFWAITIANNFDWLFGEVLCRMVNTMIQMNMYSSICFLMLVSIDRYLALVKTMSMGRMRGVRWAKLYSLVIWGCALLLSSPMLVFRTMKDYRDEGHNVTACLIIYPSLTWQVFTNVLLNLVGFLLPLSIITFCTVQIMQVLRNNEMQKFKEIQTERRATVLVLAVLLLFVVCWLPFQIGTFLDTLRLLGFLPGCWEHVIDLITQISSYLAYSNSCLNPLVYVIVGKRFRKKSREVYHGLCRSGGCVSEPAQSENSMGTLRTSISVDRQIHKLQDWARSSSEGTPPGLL
Put plainly: Inhibition of specific binding of [3H]BK to bradykinin B2 receptors of guinea pig ileum (GPI). The assay is classed as tissue-based.

Assay [2] is filed under the species Oryctolagus cuniculus. Put plainly: Compound was tested for the efficacy in the inhibition of BK-induced (4x10E-8M) contraction of rabbit jugular vein (RJV). The assay is classed as functional.
Assay [3] addresses T1, B2 bradykinin receptor. The assay can be described thus: Inhibition of BK-induced (4x10E-8M) contraction of isolated guinea pig ileum (GPI). Format: functional, tissue-based.
The subject of assay [4] is B2 bradykinin receptor, Oryctolagus cuniculus. Put plainly: % Inhibition of BK-induced (4x10E-8M) contraction of rabbit jugular vein (RJV) at 10E-5 M concentration.
The species named for assay [5] is Oryctolagus cuniculus. Put plainly: Compound was tested for the percent inhibition of BK-induced (4x10E-8M) contraction of rabbit jugular vein (RJV) at 10E-6 M concentration. The assay is classed as functional.

In assay [1], `COc1ccc(/C=C/C(=O)NCC(=O)N(C)c2ccc(SC)c(COc3cccc4ccc(C)nc34)c2SC)cc1` had an IC50 of 56.9 nM and a Ki of 6.3 nM. The same compound showed an EC50 in assay [2] of 8700 nM. The compound also yielded an EC50 in assay [3] of 660 nM.
Turning to `COC(=O)CCCCC(=O)NCC(=O)N(C)c1ccc(OC)c(COc2cccc3ccc(C)nc23)c1SC`, the half-inhibitory concentration (IC50) in assay [1] was found to be 47.2 nM. The inhibition in assay [4] was 55%. This compound returned an EC50 in assay [3] of 480 nM.
As to `COc1cccc(/C=C/C(=O)NCC(=O)N(C)c2ccc(Cl)c(COc3cccc4sc(C)nc34)c2Cl)c1`, the IC50 in assay [1] stood at 10.3 nM. The compound further returned a Ki in assay [1] of 1.3 nM. The figures for the EC50 in assay [2] and in assay [3] were 180 nM and 54 nM, respectively.
In assay [1], `COc1c(N(C)C(=O)CNC(=O)/C=C/c2ccc(C(F)(F)F)cc2)ccc(Cl)c1COc1cccc2ccc(C)nc12` had an IC50 of 21.9 nM and a Ki of 2.5 nM. Also, the concentration giving a half-maximal response (EC50) in assay [2] amounted to 28 nM. It took 55 nM to reach a half-maximal effect in assay [3] (EC50).
In the case of `CCCOc1c(N(C)C(=O)CNC(=O)/C=C/c2ccc(C(F)(F)F)cc2)ccc(OC)c1COc1cccc2ccc(C)nc12`, in assay [1], the half-maximal inhibitory concentration (IC50) came out at 32.9 nM and affinity was put at a Ki of 3.9 nM. This compound gave an inhibition in assay [4] of 82%. The same compound displayed an EC50 in assay [3] of 220 nM.
For the compound `Cc1nc2c(OCc3c(Cl)ccc(N(C)C(=O)CNC(=O)/C=C/c4ccc(C(F)(F)F)cc4)c3Cl)cccc2s1`, the IC50 in assay [1] is 23 nM. This compound also had a Ki in assay [1] of 2.8 nM. In addition, the EC50 in assay [2] is 76 nM; in assay [3] it was 100 nM.
With `COc1ccc(N(C)C(=O)CNC(=O)/C=C/c2cccc(C)c2)c(OC)c1COc1cccc2ccc(C)nc12`, in assay [1], the IC50 was 81.3 nM and affinity was put at a Ki of 9.2 nM. The compound also yielded an inhibition in assay [4] of 68%.
In assay [1], `Cc1ccc2cccc(OCc3c(C)ccc(N(C)C(=O)CNC(=O)/C=C/c4ccc(C(F)(F)F)cc4)c3C)c2n1` came in with a half-inhibitory concentration (IC50) of 11.8 nM and a Ki of 1.3 nM. Besides, the inhibition in assay [4] amounted to 81%.
Compound `Cc1ccc2cccc(OCc3c(Cl)ccc(N(C)C(=O)CNC(=O)NCCCCN)c3C#N)c2n1` registered an IC50 in assay [1] of 0.9 nM. Further, the midpoint of the response in assay [3], the EC50, lay at 350 nM.
In assay [1], `Cc1ccc2cccc(OCc3c(Cl)ccc(N(C)C(=O)CNC(=O)/C=C/c4ccc(C(F)(F)F)cc4)c3C#N)c2n1` yielded an IC50 of 1.2 nM and a Ki of 0.3 nM. The compound also yielded an inhibition in assay [4] of 82%. In assay [3], this compound had a 50% effective concentration (EC50) of 56 nM.
In assay [1], `COc1c(N(C)C(=O)CNC(=O)/C=C/c2ccc(C(F)(F)F)cc2)ccc(SC)c1COc1cccc2ccc(C)nc12` displayed an IC50 of 393 nM and a Ki of 45.4 nM. The compound further registered an Inhibition in assay [5] of 41%. The same compound showed a half-maximal effective concentration (EC50) in assay [3] of 1100 nM.
In assay [1], `Cc1nc2c(OCc3c(Cl)ccc(N(C)C(=O)CNC(=O)/C=C/c4ccco4)c3Cl)cccc2s1` came in with an IC50 of 29.8 nM and an inhibition constant (Ki) of 3.4 nM.
Take `COc1ccc(N(C)C(=O)CNC(=O)/C=C/c2ccc(NC(C)=O)nc2)c(SC)c1COc1cccc2ccc(C)nc12`: in assay [1], the IC50 was determined as 5.2 nM and the affinity, expressed as Ki, was 0.6 nM. In assay [4], this compound returned an inhibition of 95%. In addition, the EC50 in assay [3] came to 59 nM.
Take `CCNC(=O)NCC(=O)N(C)c1ccc(Cl)c(COc2cccc3ccc(C)nc23)c1C#N`: the IC50 in assay [1] was 64.8 nM. This compound returned an EC50 in assay [3] of 290 nM.
For the compound `Cc1ccc(/C=C/C(=O)NCC(=O)N(C)c2ccc(Cl)c(COc3cccc4scnc34)c2Cl)cc1`, in assay [1], the IC50 is 1350 nM and the Ki turned out to be 160 nM. For the same compound, in assay [4], the inhibition amounted to 17%. Moreover, the EC50 in assay [3] was 1300 nM.
As to `Cc1nc2c(OCc3c(Cl)ccc(N(C)C(=O)CNC(=O)OCc4ccccc4)c3Cl)cccc2s1`, in assay [1], the IC50 is 77.8 nM and the Ki is 9.1 nM.
In assay [1], `COc1ccc(N(C)C(=O)CNC(=O)/C=C/c2ccc(C(F)(F)F)cc2)c(Cl)c1COc1cccc2ccc(C)nc12` registered a concentration for half-maximal inhibition (IC50) of 11.5 nM and a Ki of 1.3 nM. In assay [2], this compound returned an EC50 of 260 nM. The same compound displayed a concentration for a half-maximal effect (EC50) in assay [3] of 130 nM.
In assay [1], `Cc1ccc2cccc(OCc3c(Cl)ccc(N(C)C(=O)CNC(=O)NCCCC(=O)O)c3C#N)c2n1` had an IC50 of 25.7 nM and an inhibition constant (Ki) of 2.9 nM. In assay [3], this compound yielded an EC50 of 400 nM.
`COc1cccc(/C=C/C(=O)NCC(=O)N(C)c2ccc(Cl)c(COc3cccc4ccc(C)nc34)c2C#N)c1`: in assay [1], the IC50 came out at 0.7 nM and affinity was put at a Ki of 0.1 nM. In assay [4], this compound had an inhibition of 78%. For the same compound, in assay [3], the EC50 came out at 4.1 nM.
With `CCNC(=O)NCC(=O)N(C)c1ccc(OC)c(COc2cccc3ccc(C)nc23)c1C#N`, the IC50 in assay [1] is 53.8 nM. In assay [4], this compound had an inhibition of 59%. In assay [3], this compound returned an EC50 of 450 nM.
For the compound `Cc1ccc(/C=C/C(=O)NCC(=O)N(C)c2ccc(Cl)c(COc3cccc4sc(-c5ccccc5)nc34)c2Cl)cc1`, in assay [1], the IC50 came to 11000 nM and the Ki is 1300 nM. Moreover, the inhibition in assay [4] is 15%. In addition, the EC50 in assay [3] was determined as 20000 nM.
`Cc1ccc(/C=C/C(=O)NCC(=O)N(C)c2ccc(Cl)c(COc3cccc4sc(C)nc34)c2Cl)cc1` yielded an IC50 in assay [1] of 14.2 nM. The compound further returned a Ki in assay [1] of 1.8 nM. The EC50 came to 66 nM in assay [2] and 23 nM in assay [3].
For `C=C/C=C/C(=O)NCC(=O)N(C)c1ccc(Cl)c(COc2cccc3sc(C)nc23)c1Cl` the same measures were 26.2 nM, 3.1 nM, 5200 nM and 260 nM.
